Experimental data as given in paper PMC3699648, “Replacement of the Human Topoisomerase Linker Domain with the Plasmodial Counterpart Renders the Enzyme Camptothecin Resistant” (PLoS ONE, 2013).

Target: T1, hTop1 (Homo sapiens, UniProt P11387)
T1 construct: gene TOP1; expressed in S. cerevisiae top1 null EKY3, anti-FLAG purified
T1 sequence (P11387 1-765): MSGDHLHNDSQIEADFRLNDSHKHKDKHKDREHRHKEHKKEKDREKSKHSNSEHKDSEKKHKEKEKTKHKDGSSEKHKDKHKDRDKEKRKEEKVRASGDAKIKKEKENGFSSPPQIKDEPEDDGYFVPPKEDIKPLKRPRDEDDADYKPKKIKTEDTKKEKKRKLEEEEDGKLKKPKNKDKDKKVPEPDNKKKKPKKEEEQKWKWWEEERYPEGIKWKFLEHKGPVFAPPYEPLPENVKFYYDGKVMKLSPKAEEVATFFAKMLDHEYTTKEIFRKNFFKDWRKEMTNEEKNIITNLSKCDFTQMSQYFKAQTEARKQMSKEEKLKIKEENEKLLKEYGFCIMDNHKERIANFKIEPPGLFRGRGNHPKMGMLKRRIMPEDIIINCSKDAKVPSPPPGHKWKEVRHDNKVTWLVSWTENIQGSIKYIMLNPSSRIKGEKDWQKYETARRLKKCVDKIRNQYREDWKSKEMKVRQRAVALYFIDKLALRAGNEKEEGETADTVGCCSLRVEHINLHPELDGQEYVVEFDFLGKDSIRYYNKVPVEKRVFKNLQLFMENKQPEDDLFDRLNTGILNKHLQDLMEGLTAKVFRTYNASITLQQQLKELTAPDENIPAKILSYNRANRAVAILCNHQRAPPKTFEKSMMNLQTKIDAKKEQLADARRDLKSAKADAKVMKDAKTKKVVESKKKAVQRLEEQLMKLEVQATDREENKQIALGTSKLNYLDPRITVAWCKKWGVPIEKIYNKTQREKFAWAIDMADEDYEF
Experiment: stabilisation of DNA cleavage complex (CL25/CP25, gel); also relaxation and religation assays
Format: biochemical
Settings: 100 µM CPT, 20 nM duplex CL25/CP25, 1 min, 25 °C, pH 7.5, 5 mM MgCl2, 5 mM CaCl2, 150 mM KCl; binds covalent enzyme-DNA complex

Compound: CC[C@@]1(O)C(=O)OCc2c1cc1n(c2=O)Cc2cc3ccccc3nc2-1 [CPT, camptothecin]
- % cleavage complex at 100 μM: In presence of CPT the hTop1 cleavage is strongly increased
